Reference: patent US20090081153A1, “COMBINATION OF SYNTHETIC ANTIMICROBIAL POLYMERS AND SESQUITERPENOID COMPOUNDS” (POLYMEDIX, INC., priority 2007, published 2009)

Key:
E. coli ATCC 25922 = assay: Inactivation kinetics, E. coli ATCC 25922 viability; assay type: cell-based; settings: Compound C 31.25 μg/ml, Nerolidol 200 μM
Text: The surviving cell numbers (log10) were plotted against time for each treatment. The average slopes were obtained using linear regression analysis and were used to calculate D-values for each treatment using D=−1/slope.

E. coli = assay: Antimicrobial disc assay against E. coli; assay type: cell-based; settings: another assay, comparison with traditional antibiotics; results not shown

Row | Molecule | D-value (Decimal log reduction time) (E. coli ATCC 25922; D=−1/slope of log10 survivors vs time) | Surviving cell numbers (E. coli ATCC 25922; Time 0 min) | Surviving cell numbers (E. coli ATCC 25922; Time 5 min) | Surviving cell numbers (E. coli ATCC 25922; Time 10 min) | Surviving cell numbers (E. coli ATCC 25922; Time 15 min) | Surviving cell numbers (E. coli ATCC 25922; Time 30 min) | Impact of sesquiterpenoids on activity against E. coli (E. coli)
1 | C=CC(C)(O)CCC=C(C)CCC=C(C)C (mixture of isomers) [Nerolidol, nerolidol] | 260.80 min | 8.83 log10 | 8.80 log10 | 8.79 log10 | 8.79 log10 | 8.77 log10 | –
2 | CN[C@H](CC(C)C)C(=O)N[C@H]1C(=O)N[C@@H](CC(N)=O)C(=O)N[C@H]2C(=O)N[C@H]3C(=O)N[C@H](C(=O)N[C@H](C(=O)O)c4cc(O)cc(O)c4-c4cc3ccc4O)[C@H](O)c3ccc(c(Cl)c3)Oc3cc2cc(c3O[C@@H]2O[C@H](CO)[C@@H](O)[C@H](O)[C@H]2O[C@H]2C[C@](C)(N)[C@H](O)[C@H](C)O2)Oc2ccc(cc2Cl)[C@H]1O [vancomycin] | – | – | – | – | – | – | no impact
3 | gentamicin | – | – | – | – | – | – | no impact
